Test results published in patent US12310967B2, “Compositions and methods of treatment for neurological disorders comprising motor neuron diseases” (Gliapharm SA, priority 2017, dated 2025).

Key:
primary astrocytes [1] = assay: High throughput screening (HTS) for lactate secretion: acidification of extracellular medium (SNARF5); format: cell-based, mouse; set-up: key to Score / HTS Score (SNARF5) / Score_SNARF: fraction of plate positive-control activity (1 = 100%); conditions: for Score_SNARF: Appendix I, primary screening confirmation (SNARF5)
Protocol: Primary cultures of cerebrocortical astrocytes were obtained from 1-2-day-old OF1 mouse pups (Charles River Laboratories). Briefly, cortices were isolated and minced in small pieces under a dissecting microscope. The cells were incubated for 30 min at 37° C. in a solution containing 20 U/ml of papain enzyme (Worthington Biochemical), L-cysteine 1 mM (Sigma), and 10 kU/ml DNase I (Worthington Biochemical) for an enzymatic dissociation. Papain activity was stopped by the addition of fetal calf serum (FCS) to the solution, and a single-cell suspension was then obtained by mechanical dissociation, which consisted in cells trituration in a DMEM (D7777, Sigma-Aldrich) medium (supplemented with 44 mm NaHCO3, and 10 ml/L antibiotic/antimycotic solution) containing 10% FCS. The cells were seeded at an average density of 6×10^4 cells/cm^2 in poly-D-lysine-coated 96, 12 or 6-well culture plates, depending on their use, and incubated at 37° C. in a humidified atmosphere containing 5% CO2/95% air. Culture medium was renewed twice per week. Cells were stimulated and harvested between DIV14 and DIV17, when confluence and cell growth were optimal.
Secretion of lactate in a high-throughput screening (HTS) fashion was measured indirectly through the acidification of extracellular medium. To this end, primary astrocytes grown in 96-well plates for 17 days were stimulated with the compounds as listed herein.
After washing the cells twice with stimulation medium (DMEM (D5030, Sigma), 3 mM NaHCO3 and 5 mM Glucose) at 37° C., cells were stimulated with the compounds at a final concentration of 10 uM (1% DMSO final) in 50 ul per well of stimulation medium supplemented with 10 uM of the extracellular pH sensor SNARF-5F %-(AND-6)-CAR (Life Technologies Corporation). Each compound was tested in two different plates for duplicates.
After 90 min stimulation, fluorescence was read at exc. (excitation) 480 nm/emm. (emission) 580 nm and at exc 480 nm/emm. 630 nm. The ratio of fluorescence between 630 nm and 580 emission values, which represents extracellular pH, was calculated.
In each plate, 8 wells were used for negative controls (DMSO) and 8 wells were used for positive controls (CCCP 2 uM in DMSO). Z prime values were calculated for each of the plates tested and values<0 were discarded.
The average and SD of compounds' values tested in duplicates were calculated, and compound was noted as HIT when the difference between compound's average and negative control's average was greater than three times the sum of compound's SD and negative controls' SD. Only scores greater than 40% were considered as lead Hits for the CDC54K library; for the remaining libraries, all hits were considered. Scores are calculated as the % of activity compared to the positive control in each plate (which is 100%).
Primary screening hits were cherry picked on new plates and confirmed for SNARF5 effect, after having discarded those compounds that are fluorescent (exc. 480 nm/emm. 580 nm or 630 nm) before stimulation. Extracellular medium was next analyzed for extracellular lactate quantification for secondary screening.
Identification of lactate-enhancing drugs with high throughput screening (HTS) experiments on astrocytes primary cultures using extracellular pH dye (SNARF5F 5-(and-6)-carboxylic acid) for 90 min. The procedure is described in Material and Methods (2. Cell culture, 2.1. HTS for lactate secretion and 2.2. Extracellular lactate quantification).
The procedure was performed as follows: • Primary screening: acidification of the extracellular medium • Primary screening confirmation: acidification of the extracellular medium, removal of compounds with fluorescent activity at exc. 480 nm/emm. 580 nm or 630 n. • Secondary screening: dosage of extracellular lactate

primary astrocytes [2] = assay: Extracellular lactate quantification; format: cell-based, mouse; conditions: Appendix I, secondary screening: extracellular lactate
Protocol: Secretion of L-lactate was determined in the extracellular medium of 96-well plated astrocytes after 90 min stimulation (at 37° C., in 5% CO2/95% air conditions) with the drug of interest. The stimulation medium was composed of D5030 medium (completed with D-glucose 5 mM and 44 mM sodium bicarbonate) for 90 min in concentrations ranging from 0 to 100 μM.
Briefly, 200 μl of a Glycine (Sigma)-Semicarbazide (Acros) 0.2M pH 10 buffer containing 3 mM NAD (Roche) and LDH 14 U/ml (Roche) was added to each well of a 96-well plate containing 30 μl aliquots complemented with 20 μl fresh complete D5030 medium. Samples were incubated at 37° C. for 1 h. After samples cooled down at room temperature, the fluorescence intensity (340 nm excitation/450 nm emission) that represents the amount of NADH produced was measured, and lactate concentration values were determined from a standard curve of L-lactate.
Statistical analysis consisted in ANOVA followed by Fisher LSD post-hoc test for pair-wise comparisons.
Levels of lactate secreted by astrocytes were measured in the extracellular medium at 90 min after stimulation with hits (molecules) from the CDC54K library.

SMILES	Score_SNARF (primary astrocytes [1])	Score_LACTATE (primary astrocytes [2])	Score (primary astrocytes [1]; Prestwick library, 10 uM, 90 min, activity relative to positive control CCCP 2 uM)	HTS Score (lactate) (primary astrocytes [1]; Prestwick library, 10 uM, 90 min, relative to positive control CCCP 2 uM)
CC(=O)N1CCCc2cc(S(=O)(=O)NCc3cccc(C(F)(F)F)c3)ccc21 [T6099519]	0.3944	0	–	–
Cc1cccc(NS(=O)(=O)c2cc(-c3noc(C)n3)cs2)c1 [L287-0220]	0.5829	1.578	–	–
COc1ccc(Cl)cc1S(=O)(=O)NCc1ccncc1 [F0376-0203]	0	0	–	–
CCOc1ccc(C2(O)C[N+](c3ccccc3C)=C3CCCCN32)cc1.[Br-] (stereo not drawn) [F0524-0511]	0.5555	0	–	–
COc1ccccc1[N+]1=C2CCCCCN2C(O)(c2ccccc2)C1 (stereo not drawn) [K404-0838]	0.8328	1.051	–	–
COc1cccc(CNc2ncnc3c2CCC3)c1 [T636-0134]	0	0.3283	–	–
CN(C)Cc1cccc(CNc2ncnc3sccc23)c1 [T6783542]	0.9183	1.033	–	–
Cc1cccc([N+]2=C3CCCCN3C(O)(c3ccc(F)cc3)C2)c1C (stereo not drawn) [K404-0685]	0.6562	0.6821	–	–
CNC(=O)C1CCCN(c2ncnc3oc(C)c(C)c23)C1 (stereo not drawn) [F228-0541]	0.3609	0	–	–
COc1ccccc1S(=O)(=O)Nc1ccc2nc(C)sc2c1 [T5246417]	0.2455	0	–	–
O=C(c1ccc(Cl)s1)N1CCC(Nc2ncnc3c2CCC3)C1 (stereo not drawn) [T636-2391]	0.8743	0.8854	–	–
COc1ccc(C2SCCN2S(=O)(=O)c2cccc(C)c2)cc1OC (stereo not drawn) [T5463658]	0.4683	0.3773	–	–
O=C(NCc1cccc(F)c1)NC1CCN(c2ncnc3c2CCC3)C1 (stereo not drawn) [T636-1243]	0.4179	0	–	–
CCn1nccc1-c1csc(S(=O)(=O)Nc2cc(C)ccc2C)c1 [L924-0988]	0.6652	0.6139	–	–
COc1ccc(C2(O)C[N+](c3cc(C)ccc3C)=C3SCCCN32)c(F)c1 (stereo not drawn) [K404-0183]	0	0	–	–
Cc1nc2ccc(NS(=O)(=O)c3ccccc3F)cc2s1 [T5511047]	0.5545	0.3825	–	–
Cc1oc2ncnc(N3CCCC(C(=O)NCc4ccccc4)C3)c2c1C (stereo not drawn) [F228-0365]	0.9429	0.9001	–	–
COc1ccc(C)cc1NS(=O)(=O)c1cc(-c2ccnn2C)cs1 [L924-0830]	0.7153	0.9168	–	–
COc1ccc(C2(O)C[N+](c3ccccc3C)=C3CCCCN32)cc1.[Br-] (stereo not drawn) [F0524-0507]	0.4491	0	–	–
Cc1ccc(CN2CCN(c3ncnc4c3CCC4)CC2)o1 [T636-1937]	0.473	0.8045	–	–
Cc1ccc(F)cc1NC(=O)Cc1nn(C)c(=O)c2ccccc12 [T6302989]	0.4072	0	–	–
O=C(NCc1ccccc1)NC1CCN(c2ncnc3c2CCC3)C1 (stereo not drawn) [T636-1210]	0.4305	0.3226	–	–
CCOc1ccc(C2(O)C[N+](c3ccccc3OC)=C3CCCCN32)cc1 (stereo not drawn) [K404-0673]	0.9751	2.024	–	–
Clc1ccc2c(c1)CCc1cccnc1C2=C1CCNCC1 [Desloratadine]	–	–	0.06079	0.061
